Experimental data published in patent US20240116985A1, “STAPLED PEPTIDES AND METHODS THEREOF” (priority 2020, published 2024).
Where two headings read alike, the source gives them in different places.

Molecular target: T1, full-length beta-Catenin (Uniprot ID P35222) (Homo sapiens, UniProt P35222)
T1 construct: 10 nM full-length beta-Catenin (Uniprot ID P35222)
T1 sequence (P35222 1-781): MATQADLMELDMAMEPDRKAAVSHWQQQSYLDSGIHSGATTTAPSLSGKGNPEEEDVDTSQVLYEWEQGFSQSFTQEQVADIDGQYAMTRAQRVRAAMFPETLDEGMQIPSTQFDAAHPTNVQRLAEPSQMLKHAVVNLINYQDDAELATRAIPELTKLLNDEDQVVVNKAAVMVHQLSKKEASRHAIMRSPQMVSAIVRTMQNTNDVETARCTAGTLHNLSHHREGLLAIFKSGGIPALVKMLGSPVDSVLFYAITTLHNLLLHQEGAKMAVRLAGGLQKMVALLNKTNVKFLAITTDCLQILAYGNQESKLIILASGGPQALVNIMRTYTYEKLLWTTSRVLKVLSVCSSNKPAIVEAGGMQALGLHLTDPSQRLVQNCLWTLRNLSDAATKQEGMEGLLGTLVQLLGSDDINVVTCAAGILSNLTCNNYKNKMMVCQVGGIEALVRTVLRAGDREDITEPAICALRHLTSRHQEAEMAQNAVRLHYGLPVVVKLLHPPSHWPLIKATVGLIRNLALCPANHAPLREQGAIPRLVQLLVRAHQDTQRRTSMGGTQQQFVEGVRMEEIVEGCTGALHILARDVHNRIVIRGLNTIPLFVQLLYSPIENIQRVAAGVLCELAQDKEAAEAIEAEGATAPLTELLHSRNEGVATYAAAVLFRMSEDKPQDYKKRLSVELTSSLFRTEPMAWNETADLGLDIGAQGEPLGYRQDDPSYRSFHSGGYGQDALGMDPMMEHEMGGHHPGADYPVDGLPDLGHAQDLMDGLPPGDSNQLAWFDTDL
Test: Fluorescence polarization IC50 (beta-catenin / 5FAM-TCF4 10-53 competition)
Assay type: binding

[1] = fluorescence polarization, read-out: beta-Catenin FP IC50
[2] = fluorescence polarization, beta-catenin, read-out: FP EC50

IC50 [1] [µM]	IC50 [2] [µM]	IC50 (read-out: beta-Catenin FP IC50) [µM]	Structure (SMILES)
0.224			C[C@@H]1NC(=O)[C@H](C)NC(=O)[C@H](CC(=O)O)NC(=O)[C@H](CC(=O)O)NC(=O)C2(CCCC=CCCCOC(=O)N3CC[C@@](C(=O)N[C@@H](Cc4ccsc4)C(=O)N[C@@H](Cc4csc5ccccc45)C(=O)N[C@@H](CCC(N)=O)C(N)=O)(C3)NC(=O)[C@H](CC(N)=O)NC(=O)[C@H](Cc3ccccc3)NC1=O)CCCC=CCS(=O)(=O)N1CCCC1C(=O)N[C@@H](CC(=O)O)C(=O)N[C@@H](CC(C)(C)C)C(=O)N2 (single isomer, unassigned) [I-1576, ProSAm3-Asp-Npg-B5-Asp-Asp-Ala-Ala-Phe-Asn-PyrS2-3Thi-BztA-Gln-NH2]
0.045			C[C@@H]1NC(=O)[C@H](C)NC(=O)[C@H](CC(=O)O)NC(=O)[C@H](CC(=O)O)NC(=O)C2(CCCC=CCCCOC(=O)N3CC[C@@](C(=O)N[C@@H](Cc4ccsc4)C(=O)N[C@@H](Cc4csc5ccccc45)C(=O)N[C@@H](CCC(N)=O)C(N)=O)(C3)NC(=O)[C@H](CC(N)=O)NC(=O)[C@H](Cc3ccccc3)NC1=O)CCCC=CCS(=O)(=O)N1CCCC1C(=O)N[C@@H](CC(=O)O)C(=O)N[C@@H](CC(C)(C)C)C(=O)N2 (single isomer, unassigned) [I-1577, ProSAm3-Asp-Npg-B5-Asp-Asp-Ala-Ala-Phe-Asn-PyrS2-3Thi-BztA-Gln-NH2]
0.099			CC(=O)N1CCC[C@]12CC=CCCCC1(CCCC=CCCCOC(=O)N3CC[C@@](C(=O)N[C@@H](Cc4ccccc4C(F)(F)F)C(=O)N[C@@H](Cc4csc5ccccc45)C(=O)N[C@@H](CO)C(N)=O)(C3)NC(=O)[C@H](CC(C)C)NC(=O)[C@H](Cc3ccccc3)NC(=O)[C@H](C)NC(=O)[C@H](C)NC(=O)[C@H](Cc3ccccc3C(=O)O)NC(=O)[C@H](CC(=O)O)NC1=O)NC(=O)[C@H](CC(C)(C)C)NC(=O)[C@H](CC(=O)O)NC2=O (single isomer, unassigned) [I-1660, Ac-PL3-Asp-Npg-B5-Asp-2COOHF-Ala-Ala-Phe-Leu-PyrS2-2F3MeF-BztA-Ser-NH2]
5.82			CC(=O)N1CCC[C@]12CC=CCCCC1(CCCC=CCCCOC(=O)N3CC[C@@](C(=O)N[C@@H](Cc4ccsc4)C(=O)N[C@@H](Cc4csc5ccccc45)C(=O)N[C@@H](CCC(N)=O)C(N)=O)(C3)NC(=O)[C@H](CC(N)=O)NC(=O)[C@H](Cc3ccccc3)NC(=O)[C@H](C)NC(=O)[C@H](C)NC(=O)[C@H]([C@@H](C)O)NC(=O)[C@H](CC(N)=O)NC1=O)NC(=O)[C@H](CC(C)(C)C)NC(=O)[C@H](Cc1ccccc1C(=O)O)NC2=O (single isomer, unassigned) [I-2136, Ac-PL3-2COOHF-Npg-B5-Asn-Thr-Ala-Ala-Phe-Asn-PyrS2-3Thi-BztA-Gln-NH2]
1.9			CC(=O)N1CCC[C@]12CC=CCCCC1(CCCC=CCCCOC(=O)N3CC[C@@](C(=O)N[C@@H](Cc4ccsc4)C(=O)N[C@@H](Cc4csc5ccccc45)C(=O)N[C@@H](CCC(N)=O)C(N)=O)(C3)NC(=O)[C@H](CC(N)=O)NC(=O)[C@H](Cc3ccccc3)NC(=O)[C@H](C)NC(=O)[C@H](C)NC(=O)[C@H]([C@@H](C)O)NC(=O)[C@H](CC(N)=O)NC1=O)NC(=O)[C@H](CC(C)(C)C)NC(=O)[C@H](Cc1ccccc1C(=O)O)NC2=O (single isomer, unassigned) [I-2137, Ac-PL3-2COOHF-Npg-B5-Asn-Thr-Ala-Ala-Phe-Asn-PyrS2-3Thi-BztA-Gln-NH2]
5			CNC(=O)C[C@@H]1NC(=O)C2(CCCC=CCCCCCC[C@@](C)(C(=O)N[C@@H](Cc3ccccc3)C(=O)N[C@@H](Cc3csc4ccccc34)C(=O)N[C@@H](CCC(N)=O)C(N)=O)NC(=O)[C@H](C(C)C)NC(=O)[C@H](Cc3ccccc3)NC(=O)[C@H](C)NC(=O)[C@H](C)NC(=O)[C@H](CC(=O)O)NC1=O)CCCC=CC[C@]1(CCCN1C(C)=O)C(=O)N[C@@H](CC(=O)O)C(=O)N[C@@H](C)C(=O)N2 (stereo partly drawn) [I-540, Ac-PL3-Asp-Ala-B5-[NHMe]AsnR-Asp-Ala-Ala-Phe-Val-S8-Phe-BztA-Gln-NH2]
	1.14		CC(=O)N1CCC[C@]12CC=CCCCC1(CCCC=CCCCOC(=O)N3CC[C@@](C(=O)N[C@@H](Cc4ccsc4)C(=O)N[C@@H](Cc4csc5ccccc45)C(=O)N[C@@H](CCC(N)=O)C(=O)O)(C3)NC(=O)[C@H](CC(N)=O)NC(=O)[C@H](CC(=O)O)NC(=O)[C@H](C)NC(=O)[C@H](C)NC(=O)[C@H](CC(=O)O)NC(=O)[C@H](CC(=O)O)NC1=O)NC(=O)[C@H](CC(C)(C)C)NC(=O)[C@H](Cc1ccccc1)NC2=O (stereo partly drawn) [I-1027, Ac-PL3-Phe-Npg-B5-Asp-Asp-Ala-Ala-Asp-Asn-PyrS2-3Thi-BztA-Gln-OH]
		0.368	CC(=O)N1CCC[C@]12CC=CCCCC1(CCCC=CCCCOC(=O)N3CC[C@@](C(=O)N[C@@H](Cc4ccccc4Cl)C(=O)N[C@@H](Cc4csc5ccccc45)C(=O)N4CCC[C@H]4CO)(C3)NC(=O)[C@H](CC(N)=O)NC(=O)[C@H](Cc3ccccc3)NC(=O)[C@H](C)NC(=O)[C@H](C)NC(=O)[C@H](CC(=O)O)NC(=O)[C@H](CC(=O)O)NC1=O)NC(=O)[C@H](CC(C)(C)C)NC(=O)[C@H](CC(=O)O)NC2=O (stereo partly drawn) [I-1084, Ac-PL3-Asp-Npg-B5-Asp-Asp-Ala-Ala-Phe-Asn-PyrS2-2C1F-BztA-Proo1]
0.005			CC(=O)N1CCC[C@]12CC=CCCCC1(CCCC=CCCCOC(=O)N3CC[C@@](C(=O)N[C@@H](Cc4ccccc4Cl)C(=O)N[C@@H](Cc4csc5ccccc45)C(=O)N[C@@H](CN4CCOCC4)C(N)=O)(C3)NC(=O)[C@H](CC(N)=O)NC(=O)[C@H](Cc3ccccc3)NC(=O)[C@H](C)NC(=O)[C@H](C)NC(=O)[C@H](CC(=O)O)NC(=O)[C@H](CC(=O)O)NC1=O)NC(=O)[C@H](CC(C)(C)C)NC(=O)[C@H](CC(=O)O)NC2=O (stereo partly drawn) [I-1133, Ac-PL3-Asp-Npg-B5-Asp-Asp-Ala-Ala-Phe-Asn-PyrS2-2C1F-BztA-MorphAla-NH2]
0.006	0.006		CC(=O)N1CCC[C@]12CC=CCCCC1(CCCC=CCCCOC(=O)N3CC[C@@](C(=O)N[C@@H](Cc4ccccc4Cl)C(=O)N[C@@H](Cc4csc5ccccc45)C(=O)N[C@@H](CN4CCOCC4)C(N)=O)(C3)NC(=O)[C@H](CC(N)=O)NC(=O)[C@H](Cc3ccccc3)NC(=O)[C@H](C)NC(=O)[C@H](C)NC(=O)[C@H](CC(=O)O)NC(=O)[C@H](CC(=O)O)NC1=O)NC(=O)[C@H](CC(C)(C)C)NC(=O)[C@H](CC(=O)O)NC2=O (stereo partly drawn) [I-1134, Ac-PL3-Asp-Npg-B5-Asp-Asp-Ala-Ala-Phe-Asn-PyrS2-2C1F-BztA-MorphAla-NH2]
0.045			CC(=O)N1CCC[C@]12CC=CCCCC1(CCCC=CCCCOC(=O)N3CC[C@@](C(=O)N[C@@H](Cc4ccccc4Cl)C(=O)N[C@@H](Cc4csc5ccccc45)C(=O)N[C@@H](CCC(N)=O)C(N)=O)(C3)NC(=O)[C@H](CO)NC(=O)[C@H](Cc3ccccc3)NC(=O)[C@H](CC(C)C)NC(=O)[C@H](C)NC(=O)[C@H](CC(=O)O)NC(=O)[C@H](CC(=O)O)NC1=O)NC(=O)[C@H](Cc1ccccc1)NC(=O)[C@H](CC(=O)O)NC2=O (stereo partly drawn) [I-1154, Ac-PL3-Asp-Phe-B5-Asp-Asp-Ala-Leu-Phe-Ser-PyrS2-2C1F-BztA-Gln-NH2]
0.06			CC(=O)N1CCC[C@]12CC=CCCCC1(CCCC=CCCCOC(=O)N3CC[C@@](C(=O)N[C@@H](Cc4ccccc4Cl)C(=O)N[C@@H](Cc4csc5ccccc45)C(=O)N[C@@H](CCC(N)=O)C(N)=O)(C3)NC(=O)[C@H](CO)NC(=O)[C@H](Cc3ccccc3)NC(=O)[C@H](CC(C)C)NC(=O)[C@H](CC(C)C)NC(=O)[C@H](CC(=O)O)NC(=O)[C@H](CC(=O)O)NC1=O)NC(=O)[C@H](Cc1ccccc1)NC(=O)[C@H](CC(=O)O)NC2=O (stereo partly drawn) [I-1155, Ac-PL3-Asp-Phe-B5-Asp-Asp-Leu-Leu-Phe-Ser-PyrS2-2C1F-BztA-Gln-NH2]
1.53			CC(=O)N1CCC[C@]12CC=CCCCC1(CCCC=CCCCOC(=O)N3CC[C@@](C(=O)N[C@@H](Cc4ccsc4)C(=O)N[C@@H](Cc4csc5ccccc45)C(=O)N[C@@H](CCC(N)=O)C(N)=O)(C3)NC(=O)[C@H](CC(N)=O)NC(=O)[C@H](Cc3ccccc3)NC(=O)[C@H](C)NC(=O)[C@H](C)NC(=O)[C@H](CN(CC(=O)O)CC(F)(F)F)NC(=O)[C@H](CC(=O)O)NC1=O)NC(=O)[C@H](CC(C)(C)C)NC(=O)[C@H](CC(=O)O)N(C)C2=O (stereo partly drawn) [I-1162, Ac-PL3-NMeD-Npg-B5-Asp-TfeGA-Ala-Ala-Phe-Asn-PyrS2-3Thi-BztA-Gln-NH2]

Structure (SMILES)	IC50 [1] [µM]	IC50 [2] [µM]	IC50 (read-out: beta-Catenin FP IC50) [µM]
CC(=O)N1CCC[C@]12CC=CCCCC1(CCCC=CCCCOC(=O)N3CC[C@@](C(=O)N[C@@H](Cc4ccsc4)C(=O)N[C@@H](Cc4csc5ccccc45)C(=O)N[C@@H](CCC(N)=O)C(N)=O)(C3)NC(=O)[C@H](CC(C)C)NC(=O)C(Cc3cccc(C(=O)Oc4ccccc4)c3)NC(=O)[C@H](C)NC(=O)[C@H](C)NC(=O)[C@H](CN(CC(=O)O)CC(F)(F)F)NC(=O)[C@H](CC(=O)O)NC1=O)NC(=O)[C@H](CC(C)(C)C)NC(=O)[C@H](CC(=O)O)NC2=O (single isomer, unassigned) [I-2150, Ac-PL3-Asp-Npg-B5-Asp-TfeGA-Ala-Ala-3CO2PhF-Leu-PyrS2-3Thi-BztA-Gln-NH2]	0.647		
